Measurements from ChEMBL document CHEMBL1146740, “New analogue of arenastatin A, a potent cytotoxic spongean depsipeptide, with anti-tumor activity” (Bioorg Med Chem Lett, 2004).
≈ marks a conversion by molar mass, not a printed value.

Tests used:
KB 3-1 = assay: Inhibitory activity was evaluated for potent cytotoxic effect on KB-3-1 cells; assay type: functional, cell-based; conditions: Homo sapiens
[1] = In vivo antitumor activity (reduction of tumor volume) was determined over treated/control mice at a dose of 3.3 mg/kg; assay type: functional
[2] = In vivo antitumor activity (reduction of tumor volume) was determined over treated/control mice at a dose of 1.65 mg/kg; assay type: functional
Mus musculus [3] = assay: In vivo antitumor activity (reduction of tumor volume) was determined against lewis lung carcinoma, subcutaneously in mice at a dose of 1.65 mg/kg; assay type: functional; conditions: route intravenous
Mus musculus [4] = assay: In vivo antitumor activity (reduction of tumor volume) was determined against lewis lung carcinoma, subcutaneously in mice at a dose of 3.3 mg/kg; assay type: functional; conditions: route intravenous
Mus musculus [5] = assay: In vivo antitumor activity (reduction of tumor volume) was determined against lewis lung carcinoma, subcutaneously in mice at a dose of 5 mg/kg; assay type: functional; conditions: route intravenous
Mus musculus [6] = assay: In vivo antitumor activity (reduction of tumor volume) was determined against lewis lung carcinoma, subcutaneously in mice at a dose of 2.5 mg/kg; assay type: functional; conditions: route intravenous
Mus musculus [7] = assay: In vivo antitumor activity (reduction of tumor volume) was determined against lewis lung carcinoma, subcutaneously in mice at a dose of 10 mg/kg; assay type: functional; conditions: route intravenous
[8] = In vivo antitumor activity (reduction of tumor volume) was determined over treated/control mice at a dose of 2.5 mg/kg; assay type: functional
[9] = In vivo antitumor activity (reduction of tumor volume) was determined over treated/control mice at a dose of 5 mg/kg; assay type: functional
[10] = In vivo antitumor activity (reduction of tumor volume) was determined over treated/control mice at a dose of 10 mg/kg; assay type: functional

Row | SMILES | IC50 (KB 3-1) [µg/mL] | T/C [1] | T/C [2] | Tumor volume (Mus musculus [3]) [cm*3] | Tumor volume (Mus musculus [4]) [cm*3] | Tumor volume (Mus musculus [5]) [cm*3] | Tumor volume (Mus musculus [6]) [cm*3] | Tumor volume (Mus musculus [7]) [cm*3] | T/C [8] | T/C [9] | T/C [10]
1 | COc1ccc(C[C@H]2NC(=O)/C=C/C[C@@H]([C@H](C)[C@H]3O[C@@H]3c3ccccc3)OC(=O)[C@H](C(C)C)OC(=O)CCNC2=O)cc1 | 0.03 (≈ 0.0506 µM) |  |  |  |  |  |  |  |  |  | 
2 | CO[C@@]12[C@H](COC(N)=O)C3=C(C(=O)C(C)=C(N)C3=O)N1C[C@@H]1N[C@@H]12 [MITOMYCIN] |  | 0.48 | 0.62 | 4.2 | 3.3 |  |  |  |  |  | 
3 | COc1ccc(C[C@H]2NC(=O)/C=C/C[C@@H]([C@H](C)[C@H]3O[C@@H]3c3ccccc3)OC(=O)[C@H](C(C)(C)C)OC(=O)CCNC2=O)cc1 | 0.01 (≈ 0.0165 µM) |  |  |  |  | 7.1 | 6.6 | 4.9 | 0.96 | 1.03 | 0.71
